Source: paper PMC9576799, “Discovery of small molecule inhibitors that effectively disrupt IQGAP1-Cdc42 interaction in breast cancer cells” (Scientific Reports, 2022)

System: MCF7-siIQ8 cells
Assay: CellTiter-Glo cell viability assay, IQGAP1 knockdown MCF7
Format: cell-based
Details: Homo sapiens
Method: Selected hit compounds were tested in CellTiterGlo cell viability assays to determine their cytotoxic effect on IQGAP1 knockout and control MCF7 cells. Prior to the assay, we assessed cell proliferation to keep both cell lines at similar exponential growth rates within 80 h after plating. For this purpose, the cells were plated onto 384-well clear bottom black plates (Perkin Elmer, Ultra) at various cell densities (between 625 and 10,000 cells/50µL/well), spun down for 15 s, and placed into Incucyte SX5 (Essen BioScience) for automated bright-field channel reading every 4 h. […] For the cytotoxicity assays, cells were harvested with 0.05% trypsin, spun down at 125xg for 5 min, re-suspended in fresh DMEM supplemented with 5% (v/v) FBS, and seeded into 1536-well white solid bottom tissue culture-treated plates (Greiner One, #789173-F) at 600 cells/5µL/well for knockout cells and 300 cells/5µL/well for control cells using a Multidrop Combi dispenser (Thermo Fisher Scientific Inc.). […]
Plates and reagents were equilibrated to room temperature and then 5 µL/well of CellTiter Glo (Promega, #G7570) reagent was dispensed with a Multidrop Combi dispenser to the assay plates. After incubation for 10 min at ambient temperature, the luminescence signal was read with a ViewLux instrument (Perkin Elmer) with one second exposure. […]

Compound: Cc1cccc(NC(=O)c2c(NC(=O)C(F)(F)F)sc3c2CCCCC3)c1 [NCGC00098561]
- Emax (MCF7, 72 h, read-out: cytotoxicity efficacy): ~100%
- IC50 (IQGAP1 knockdown MCF7-siIQ8 cells, 72 h, read-out: cytotoxicity EC50): 2240 nM
